Results published in the NIST ThermoML archive (doi:10.1021/je400122k).

Settings: Liquid; for speed of sound: Pulse-echo method; for mass density: Vibrating tube method

CCCCCCCCCCCCCC(=O)OCC [ethyl tetradecanoate]
Settings	mass density, 343.15 K [kg/m3]	mass density, 353.15 K [kg/m3]	mass density, 363.15 K [kg/m3]	mass density, 373.15 K [kg/m3]	mass density, 383.15 K [kg/m3]	mass density, 393.15 K [kg/m3]	speed of sound, 343.15 K [m/s]	speed of sound, 363.15 K [m/s]	speed of sound, 383.15 K [m/s]	speed of sound, 403.15 K [m/s]
100 kPa	–	–	–	–	–	–	–	1120	1056.9	996.1
101.3 kPa	–	815.6	808.4	800.1	792.1	784.5	–	–	–	–
10000 kPa	–	823.9	816.6	809.9	802.1	794.6	–	1181.8	1122.3	1067.2
20000 kPa	–	831.8	824.6	817.9	810.7	803.7	–	1236.4	1181.7	1130.3
30000 kPa	–	838.7	831.8	825.5	818.5	812	–	1287.1	1235.6	1186.1
40000 kPa	–	845	838.6	832.4	825.9	819.5	–	1334.2	1284.7	1237.3
50000 kPa	–	850.8	845	838.8	832.5	826.4	–	1377.5	1330.3	1284.9
60000 kPa	–	856.4	850.6	844.9	838.9	832.9	–	1418.8	1372.3	1327.9
70000 kPa	–	861.8	856.1	850.6	845	839.8	–	1457.6	1412.6	1370
80000 kPa	–	866.9	861.3	856.2	850.5	845.6	–	1495.5	1450.4	1409.7
90000 kPa	877.5	871.8	866.3	861.3	855.9	851	1576.2	1531	1486.9	1447.5
100000 kPa	882.1	876.4	871.1	866.1	861	855.6	1609.1	1564.6	1521.7	1483.2
